Source: paper PMC13316043, “Structural basis of NSD2 degradation via targeted recruitment of SCF-FBXO22” (Nature Communications, 2026)

How the values were obtained:
NSD2 = target: T1, NSD2 (Homo sapiens, UniProt O96028); experiment: Western blot of NSD2 in U2OS cells; type: cell-based; details: 300 nM, 6 h
T1 construct: endogenous in cells; host or cells: U2OS (ATCC)
T1 sequence (O96028 1-1365): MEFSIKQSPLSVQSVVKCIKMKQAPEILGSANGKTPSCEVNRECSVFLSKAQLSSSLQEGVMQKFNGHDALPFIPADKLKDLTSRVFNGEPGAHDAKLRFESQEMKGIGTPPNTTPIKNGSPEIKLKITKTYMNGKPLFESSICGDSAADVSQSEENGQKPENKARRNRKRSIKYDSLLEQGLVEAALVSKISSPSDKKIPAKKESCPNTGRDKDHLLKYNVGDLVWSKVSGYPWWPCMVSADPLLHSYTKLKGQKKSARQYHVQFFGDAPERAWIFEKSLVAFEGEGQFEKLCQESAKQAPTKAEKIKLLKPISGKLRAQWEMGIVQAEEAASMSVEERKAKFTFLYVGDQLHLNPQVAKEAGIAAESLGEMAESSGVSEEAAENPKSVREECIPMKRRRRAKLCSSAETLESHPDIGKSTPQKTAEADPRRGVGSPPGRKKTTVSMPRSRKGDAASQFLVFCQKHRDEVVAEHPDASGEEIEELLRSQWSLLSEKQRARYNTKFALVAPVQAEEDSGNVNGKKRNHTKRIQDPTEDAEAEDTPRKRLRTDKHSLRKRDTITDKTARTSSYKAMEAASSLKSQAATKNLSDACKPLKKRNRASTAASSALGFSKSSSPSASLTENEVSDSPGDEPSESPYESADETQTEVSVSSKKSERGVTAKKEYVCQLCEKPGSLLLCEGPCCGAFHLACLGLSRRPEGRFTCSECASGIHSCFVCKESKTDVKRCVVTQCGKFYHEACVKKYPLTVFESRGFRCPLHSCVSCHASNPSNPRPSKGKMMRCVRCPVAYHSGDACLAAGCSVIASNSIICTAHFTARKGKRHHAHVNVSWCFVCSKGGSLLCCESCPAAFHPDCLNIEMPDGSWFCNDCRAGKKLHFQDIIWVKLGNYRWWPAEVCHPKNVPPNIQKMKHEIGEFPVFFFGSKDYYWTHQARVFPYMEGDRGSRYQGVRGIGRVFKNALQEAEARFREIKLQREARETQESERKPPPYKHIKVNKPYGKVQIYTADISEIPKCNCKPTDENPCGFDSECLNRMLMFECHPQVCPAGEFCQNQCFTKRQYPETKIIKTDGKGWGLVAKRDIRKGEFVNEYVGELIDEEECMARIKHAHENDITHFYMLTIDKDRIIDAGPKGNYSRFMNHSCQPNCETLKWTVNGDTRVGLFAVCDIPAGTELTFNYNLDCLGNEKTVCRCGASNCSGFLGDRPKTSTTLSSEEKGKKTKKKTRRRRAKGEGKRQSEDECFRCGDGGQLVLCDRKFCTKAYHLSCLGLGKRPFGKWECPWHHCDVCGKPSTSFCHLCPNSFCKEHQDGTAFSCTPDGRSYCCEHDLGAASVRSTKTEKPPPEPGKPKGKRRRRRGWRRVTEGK
Experimental: HEK293T and U2OS were obtained from ATCC and cultured in high-glucose-containing Dulbecco’s Modified Eagle’s Medium (DMEM; Gibco; cat. #11995) supplemented with 10% fetal bovine serum (VWR) and 1% penicillin/streptomycin (Gibco). Cells were treated with either UNC10415667, UNC12149, UNC12567, hemin (Sigma; cat. #H9039), or DMSO control for the indicated times and analyzed by western blot using standard procedures. Briefly, cells were lysed on ice for 15 min in NETN lysis buffer (20 mM Tris pH 8.0, 100 mM NaCl, 0.5 mM EDTA, 0.5% NP40) supplemented with 10 µg/mL aprotinin, 10 µg/mL leupeptin, 10 µg/mL pepstatin A, 1 mM sodium orthovanadate, 1 mM sodium fluoride, and 1 mM AEBSF (4-[two aminoethyl] benzenesulfonyl fluoride). Cell lysates were centrifuged at 20,000×g in a benchtop microcentrifuge at 4 °C for 10 min. Protein concentration was determined by Bradford assay (Bio-Rad; cat. #5000006). Protein concentration was normalized using Laemmli buffer. Samples were heated for 5 min at 95°C in a dry water-bath. Samples were separated on TGX stain free gels (Bio-Rad) transferred to nitrocellulose membrane and blocked in 5% non-fat dry milk (Biorad; cat. #1706404) diluted in 1x TBS-T (137 mM NaCl, 2.7 mM KCl, 25 mM Tris pH 7.6, 1% Tween-20). […]

U2OS cells = experiment: CellTiter-Glo cell viability assay; type: cell-based, human; details: 1 µM, 6 h
Experimental: The cell viability of NSD2 HiBiT U2OS P112 and parental U2OS cell lines treated with NSD2 degrader was determined by the CellTiter-Glo 2.0 Cell Viability Assay (Promega, G9242). 384-well plates (Corning) with cells and the reagent were equilibrated to the room temperature before detection. The reagent was added to the assay plate according to the product instruction and allowed to incubate on an orbital shaker for 3 min at room temperature before subjecting the plate to the GloMax luminometer (Promega). The data and graphs were then analyzed and generated using GraphPad Prism (v 10.4.1)

| Structure (SMILES) | NSD2 level by western blot (NSD2) | cell viability (U2OS cells) |
| --- | --- | --- |
| Cc1cc(C=O)ccc1C(=O)N1CCc2cc(NC(=O)c3ccc(CN(C(=O)c4ccc5c(c4)OCC(=O)N5)C4CC4)cc3)ccc2C1 [UNC12149] | undetectable | – |
| O=Cc1ccc(C(=O)N2CCc3cc(NC(=O)c4ccc(CN(C(=O)c5ccc6c(c5)OCC(=O)N6)C5CC5)cc4)ccc3C2)cc1 [UNC10415667] | – | did not impact cell viability |
